According to patent US20240132463A1, “SUBSTITUTED N-(2-(2,6-DIOXOPIPERIDIN-3-YL)-1,3-DIOXOISOINDOLIN-5-YL)ARYLSULFONAMIDE ANALOGS AS MODULATORS OF CEREBLON PROTEIN” (ST. JUDE CHILDREN'S RESEARCH HOSPITAL, INC., priority 2020, published 2024):

Assays:
[1] = Aqueous solubility assay; format: physicochemical; conditions: aqueous solubility at pH = 7.4, triplicate
Protocol: Solubility assays were carried out on a Biomek FX lab automation workstation (Beckman Coulter, Inc., Fullerton, CA) using μSOL Evolution software (pION Inc., Woburn, MA). 10 μL of 10 mM compound stock (in DMSO) was added to 190 μL 1-propanol to make a reference stock plate. 5 μL from this reference stock plate were mixed with 70 μL 1-propanol and 75 μL citrate phosphate-buffered saline (PBS;isotonic) to make the reference plate, and the UV spectrum (250-500 nm) of the reference plate was read. 6 μL of 10 mM test compound stock was added to 594 μL buffer in a 96-well storage plate and mixed. The storage plate was sealed and incubated at RT for 18 h. The suspension was then filtered through a 96-well filter plate (pION Inc., Woburn, MA). 75 μL of filtrate was mixed with 75 μL 1-propanol to make the sample plate, and the UV spectrum of the sample plate was read. Calculations were carried out with μSOL Evolution software based on the area under the curve (AUC) of the UV spectrum of the sample and reference plates. All compounds were tested in triplicate.

[2] = target: IKZF1 (Homo sapiens (Human), UniProt Q13422+Q96SW2); experiment: IKZF1 degradation by immunoblot in MV4-11 cells; format: cell-based; conditions: MV4-11 cells
Protocol: MV4-11 cells were seeded in 6-well plates (1×10^6 cells per well). After overnight incubation, the cells were treated with indicated concentrations for specific timepoints. […] After blocking the membrane with LI-COR TBS blocking buffer and incubation in primary antibody overnight, the corresponding protein signals were detected using IRDye secondary antibodies and Odyssey Imaging System. Image Studio Lite Ver 5.2 was used for blot quantification. […] IRDye® 800CW Goat anti-Mouse IgG Secondary Antibody and IRDye® 68ORD Goat anti-Rabbit IgG Secondary Antibody were used as secondary antibodies.

[3] = Liver microsomes stability assay (mouse); format: in vitro ADME
Protocol: (§1) The liver microsome stability assay was carried as previously described (Refs. 40-41). NADPH regenerating agent solutions A and B and mouse liver microsomes (CD-1) were obtained from BD Gentest (Woburn, MA). Pooled human liver microsomes were purchased from XenoTech (Lenexa, KS). Ninety-six deep well plates were obtained from Midsci (St. Louis, MO). Ninety-six analytical plates were obtained from Corning Incorporated (Acton, MA). Sample preparation for microsomal stability was modified from Di's publications. A set of incubation times of 0, 15, 30, 60, 120, and 240 min were used. DMSO stock solutions of test compounds and verapamil (system control) were prepared at 10 mM concentration. Concentrated human or mouse liver microsomes (20 mg/mL protein concentration) and 0.5 M EDTA were diluted into 0.1 M potassium phosphate buffer (pH 7.4) and mixed well, followed by compounds solutions being spiked. This solution was mixed and 90 μL was transferred to 6 time points plates (each in triplicate wells). For the time 0 h plate, 3 fold (v:v) cold acetonitrile with internal standard (40 ng/ml warfarin) was added to each well, followed by addition of NADPH regenerating agent (mixing NADPH solutions A and B in PBS, pH7.4) and no incubation. […] The metabolic stability was evaluated via the half-life from least-squares fit of the multiple time points based on first-order kinetics.

[4] = Liver microsomes stability assay (human); format: in vitro ADME
Protocol: as §1

[5] = tested on: MV4-11 cells; experiment: Lenalidomide competition assay; format: cell-based, human; conditions: co-treatment with lenalidomide 10 μM, 72 h
Protocol: Compounds were screened in human cancer cell lines and each cell line was cultured in the complete medium recommended by the vendor and seeded in Corning 8804BC white 384-well assay plates at density of 1,000, 1,000, 1,000, 1,500 and 7,500 cells per well, for MV4-11, HD-MB03, MB004, MB002 and MHH-CALL4 cells respectively. After overnight incubation at 37° C. in a humidified 5% CO2 incubator, cells were treated with compounds in dose-response format using a Pintool on a Biomek FXP Laboratory Automation Workstation (Beckman Coulter). […] After 72 h incubation, cell proliferation was assessed using Cell Titer-Glo (CTG) luminescent cell viability assay (Promega) according to the manufacturer's instruction. Luminescence signal was measured using an Envision plate reader (Perkin-Elmer).

[6] = tested on: CRBN knockout MV4-11 cells; experiment: Cell viability in CRBN knockout MV4-11 cells; format: cell-based, human; conditions: CRBN knockout vs wild-type MV4-11 cells
Protocol: MV-4-11 cell line was purchased from the American Type Culture Collection (ATCC, Manassas, VA). The cells were cultured according to recommendations in IMDM cell culture media (ATCC). Exponentially growing MV-4-11 cells were plated at 1,000 cells per well in Corning 8804BC white 384-well assay plates and incubated overnight at 37° C. in a humidified 5% CO2 incubator. Compounds were transferred to the assay plate from a dose-response plate using a Pintool on a Biomek FXP Laboratory Automation Workstation (Beckman Coulter). Cytotoxicity was determined following 72 hours of incubation using Promega Cell Titer Glo reagent according to the manufacturer's recommendation. Luminescence was measured on an Envision plate reader (Perkin-Elmer).
CRBN-deficient MV4:11 cells were generated using CRISPR-Cas9 technology. […] Five days post nucleofection, cells were single-cell sorted by FACs to enrich for GFP+(transfected) cells, clonally selected, and verified for the desired targeted modification via targeted deep sequencing using gene specific primers with partial Illumina adapter overhangs (hCRBN.F—5′-[sequence]-3′ (SEQID: 6) and hCRBN.R—5′-[sequence]-3′, (SEQID: 7); overhangs not shown) and analyzed using CRIS.py (Ref. 36).

O=C1CCC(N2C(=O)c3ccc(NS(=O)(=O)c4ccccc4OC(F)(F)F)cc3C2=O)C(=O)N1 (stereo not drawn) [Compound 1, N-(2-(2,6-dioxopiperidin-3-yl)-1,3-dioxoisoindolin-5-yl)-2-(trifluoromethoxy)benzenesulfonamide]
Sol. [1]: 67 µM | IKZF1 degradation at 4 hours ([2]; 4 hours, any concentration tested): did not significantly degrade IKZF1 | IKZF1 protein abundance ([2]; treatment over 24 hours): dose-dependent decrease | intrinsic clearance Clint [3]: 12 mL/min/kg | liver microsomes t1/2 [3]: 4.7 h | intrinsic clearance Clint [4]: 4 mL/min/kg | liver microsomes t1/2 [4]: 5.7 h | antiproliferative effect in presence of lenalidomide [5]: abrogating the antiproliferative effects | antiproliferative activity in absence of CRBN [6]: abolished
